Experiment [1] deals with anaphylactic bronchospasm in sensitized guinea pigs. Put plainly: Inhibition of anaphylactic bronchospasm in sensitized guinea pigs with antigen-induced bronchoconstriction. It counts as in vivo, male Hartley guinea pigs. The settings on record: Cavia porcellus, po; for ED50: 2 hours before challenge with ovalbumin, sensitized guinea pigs, read-out: ED50 (p.o.)-in anaphylactic bronchospasm test. As to the method: The compounds of this invention may be employed as anti-allergy agents in the treatment of, for example, asthma, allergic or seasonal rhinitis, and/or chronic bronchitis. The anti-allergy method of this invention is identified by tests which measure a compound's inhibition of anaphylactic bronchospasm in sensitized guinea pigs having antigen induced broncho-constriction.
In one such test procedure, male Hartley guinea pigs (250-300 g) are sensitized with 5 mg ovalbumin injected i.p. and 5 mg injected s.c. in 1 ml saline on day 1 and 5 mg ovalbumin injected i.p. on day 4. The sensitized animals are used 3-4 weeks later at which time they weigh 450-500 g.
The sensitized guinea pigs are fasted overnight and the following morning are anesthetized with 0.9 ml/kg i.p. of dialurethane (0.1 g/ml diallybarbituric acid, 0.4 g/ml ethylurea and 0.4 g/ml urethane). The trachea are cannulated and the animals are ventilated by a Harvard® rodent respirator at 50 strokes/minute with a stroke volume of 5 ml. A side arm to the tracheal cannula is connected to a pressure transducer (Harvard) to obtain a continuous measure of intratracheal pressure which is recorded on a polygraph (Harvard). The jugular vein is cannulated for the i.v. administration of substances. The animals are challenged with antigen (0.5% ovalbumin) as an aerosol generated from a DeVilbiss® Model 65 ultrasonic nebulizer and delivered through the tracheal cannula for 30 seconds. Bronchoconstriction is measured as the peak increase in intratracheal pressure occurring within 5 minutes after antigen challenge.
The sensitized guinea pigs are injected i.v. with 1 mg/kg propranolol, 5 mg/kg indomethacin and 2 mg/kg mepyramine given together in a volume of 1 ml/kg. Fifteen minutes later the animals are challenged with nebulized ovalbumin. Test compounds are administered orally 2 hours before challenge with ovalbumin. Suppression of anaphylactic bronchospasm is expressed as a percent inhibition of the peak increase in intratracheal pressure by comparison to a vehicle-treated control group.

Experiment [2] has as its system Reversed Passive Arthus Response. Put plainly: Reversed Passive Arthus Response (RPAR), paw volume. The settings on record: 25 mg/kg p.o. once daily for 3 days, rats; for Percent Inhibition vs. Control at 2 hrs.: paw volume 2 hours post-challenge; for Percent Inhibition vs. Control at 4 hrs.: paw volume 4 hours post-challenge. It is filed as in vivo, Male Lewis inbred albino rats. The source says: The compounds of this invention are also useful for the treatment of inflammation. Thus, they are useful in the treatment of arthritis, bursitis, tendonitis, gout and other physical conditions characterized by inflammation.
Reversed Passive Arthus Response (RPAR) Animals, Materials and Methods
Male Lewis inbred albino rats weighing 180-200 grams obtained from Charles River Breeding Laboratories are used in these experiments. The rats are housed 3 animals/cage and food and water are allowed ad libitum. The animals are numbered 1-3 in each cage and color marked for identification purposes.
All reagents and drugs are prepared just prior to the study. Crystallized and lyophilized bovine serum albumin (BSA), available from Sigma Chemical Company, is solubilized without shaking in cold, sterile, pyrogenfree saline (10 mg/ml). Lyophilized anti-bovine serum albumin (IgG fraction), obtained from Cappel Laboratories, is suspended in sterile distilled water and diluted with cold, pyrogen-free saline (PFS) just prior to use. The final concentration of anti-bovine serum albumin is 0.5. mg/ml of PFS. Both BSA and anti-BSA solutions are iced during use. Drugs are suspended or solubilized in an aqueous solution of methyl cellulose (MC) with an homogenizer just prior to administration.
Groups of animals (6/group) are dosed with drug in MC by gavage once daily for 3 days. The last dose is administered one hour prior to sensitization with BSA. Controls are given MC alone and a drug-standard is usually included in each assay for verification purposes. Drugs are prepared and diluted so as to provide a dose for a 200 gram animal which is equivalent to the mg/kg dose for each experiment. Thus each rat receives an oral dose in a volume of approximately 2.0 cc. One hour after the last dose the animals are lightly anesthetized with ether and "sensitized" by injection of 0.2 ml of PFS containing 1.0 mg of BSA into the penile vein. One hour later, the animals are "challenged" in the right rear paw with subplantar injections of […] PFS containing 0.1 mg of anti-BSA. Immediately after the subplantar injection, the right paw is dipped (up to the lateral maleolus) into the mercury well of a plethysmograph. The volume of mercury displaced is converted to weight and recorded. This value is considered to be the control reading for the animal. Paw volumes are subsequently recorded with a plethysmograph during the development of the inflammation at 2 and 4 hours post-challenge.
Results are expressed by the change in paw volume (Δ paw volume) from the control reading for each animal to that recorded 2 and 4 hours post-challenge. All drug treated groups are compared to the MC control for significant differences with an analysis of variance. Differences from control in drug-treated groups are expressed as percent change from control in Table II.

Experiment [3] concerns GRAFT VS. HOST REACTION (GVHR). Put plainly: Graft vs. host reaction (GVHR), spleen weight. It is filed as in vivo, C57 B1/6XA/J(B6AF1) male mice. As to conditions: 10 mg/kg orally for 10 days; GVHR mice. As to the method: To induce a GVHR, C57 B1/6XA/J(B6AF1) male mice were injected intravenously with parental (C57B1/6J) spleen and lymph node cells. The compound 1,2,3,4-tetrahydro-7-phenyl-oxepino[2,3-c][1,8]-naphthyridin-6(7H)-one (Compound A) was then administered orally for 10 days beginning on the day prior to the cell transfer. On the day following the last treatment, the animals were sacrificed, and their spleens were excised and weighed. The enlargement of the spleen of the host is a result of a GVHR. To some extent it is the host's own cells which infiltrate and enlarge the spleen although they do this because of the presence of graft cells reacting against the host. The amount of spleen enlargement, splenonmegaly, is taken as a measure of the severity of the GVHR.
In carrying out the GVHR the animal in the experimental group is injected with parental cells, cells of the same species but of different genotyne, which cause a weight increase of the spleen. […] The effectiveness of Compound A adminstered to the mice in the experimental group is measured by comparing the spleen weight of the untreated and treated GVH animal with that of the syngeneic control. Compound A reduced spleen weight by 61% as compared to the untreated animals at a dose of 10 mg/kg.

The next experiment concerns spleen weight. Kind of experiment: Splenic atrophy test, decrease in spleen weight. It counts as in vivo. The settings on record: BDF₁ mice. As to the method:
The immunosuppressive activity of the compounds may also be shown by a decrease in spleen weight after dosing BDF₁ mice orally with the drug for seven (7) consecutive days. The mice are sacrificed on the eighth day. The percent decrease in spleen weight is measured for each dosage level. In this procedure (Compound A) provided a 30% spleen weight decrease at a dosage level of 100 mg/kg.

Experiment [4] deals with reverse passive Arthus reaction in the pleural cavity of rats. Kind of experiment: Reverse passive Arthus reaction in the pleural cavity. As to conditions: Rattus norvegicus, po, method of Myers et al., read-out: ED₅₀ reverse passive Arthus reaction in the pleural cavity. It counts as in vivo.

The structures appear in SMILES notation.

For `O=c1c2c(c3cccnc3n1-c1ccccc1)CCCCO2` [Compound 4, 1,2,3,4-tetrahydro-7-phenyl-oxepino[2,3-c][1,8]-naphthyridin-6(7H)-one], the values for the ED50 in experiment [1] and in experiment [4] were 1 mg/kg and approximately 4.5 mg/kg, respectively. Further, the ED30 is approximately 0.5 mg/kg in experiment [1] (sensitized guinea pigs having antigen-induced bronchoconstriction, read-out: ED₃₀ inhibition of anaphylactic bronchospasm) and approximately 100 mg/kg with spleen weight (Mus musculus, oral, seven consecutive days, read-out: ED₃₀ in the splenic atrophy test). Further, the “Percent Inhibition vs. Control at 2 hrs.” value in experiment [2] is 74%. Moreover, the “Percent Inhibition vs. Control at 4 hrs.” value in experiment [2] is 25%. In experiment [3], the “reduced spleen weight as compared to the untreated animals” value was found to be 61%. For the same compound, in the experiment with spleen weight (100 mg/kg orally for seven consecutive days), the spleen weight decrease is listed as 30%.
In the case of `O=c1c2c(c3cccnc3n1-c1cccc(Cl)c1)CCCCO2` [Compound 3, 7-(3-Chlorophenyl)-1,2,3,4-tetrahydro-oxepino[2,3-c][1,8]-naphthyridin-6(7H)-one], the ED50 in experiment [1] stood at 5 mg/kg.
Regarding `O=c1c2c(c3cccnc3n1-c1cccc(Cl)c1)CCCC2` [Compound 1, 5-(3-Chlorophenyl)-7,8,9,10-tetrahydro-benzo[c][1,8]-naphthyridin-6(5H)-one], the ED50 in experiment [1] stood at 2 mg/kg. In experiment [2], the “Percent Inhibition vs. Control at 2 hrs.” value came out at 64% and the “Percent Inhibition vs. Control at 4 hrs.” value is reported as 30%.
`O=c1c2c(c3cccnc3n1-c1ccccc1)CCCC2` [Compound 2, 7,8,9,10-Tetrahydro-5-phenyl-benzo[c][1,8]-naphthyridin-6-(5H)-one]: the ED50 in experiment [1] amounted to 2 mg/kg. In experiment [2], the “Percent Inhibition vs. Control at 2 hrs.” value was 75% and the “Percent Inhibition vs. Control at 4 hrs.” value is listed as 29%.

The values above are taken from EP0241291B1, “Aryl-substituted naphthyridine and pyridopyrazine derivatives” (SCHERING CORPORATION, priority 1986, dated 1987).
